Data published in US10323022B2, “Pyrrolidinyl urea, pyrrolidinyl thiourea and pyrrolidinyl guanidine compounds as TrkA kinase inhibitors” (Array BioPharma Inc., priority 2011, dated 2019).
Counter-ions that a name gives are not always drawn.

Target: TrkA (Homo sapiens (Human), UniProt P04629)
Experiment: TrkA Omnia Assay
Format: biochemical
Conditions: averaged IC50; 20 nM enzyme, 500 μM ATP, 10 μM peptide substrate
Summary of the method: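 Recombinant TrkA (20 nM) preincubated 10 min at ambient temperature with compound, then Omnia Tyr Peptide #4 (10 μM) and ATP (500 μM) added in 25 mM MOPS pH 7.5, 5 mM MgCl2, 0.005% Triton X-100. Fluorescence (ex 360/em 485 nm) followed continuously for 70 min; IC50 from initial rates by 4- or 5-parameter logistic fit.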

TrkA, sequence (P04629 33-796): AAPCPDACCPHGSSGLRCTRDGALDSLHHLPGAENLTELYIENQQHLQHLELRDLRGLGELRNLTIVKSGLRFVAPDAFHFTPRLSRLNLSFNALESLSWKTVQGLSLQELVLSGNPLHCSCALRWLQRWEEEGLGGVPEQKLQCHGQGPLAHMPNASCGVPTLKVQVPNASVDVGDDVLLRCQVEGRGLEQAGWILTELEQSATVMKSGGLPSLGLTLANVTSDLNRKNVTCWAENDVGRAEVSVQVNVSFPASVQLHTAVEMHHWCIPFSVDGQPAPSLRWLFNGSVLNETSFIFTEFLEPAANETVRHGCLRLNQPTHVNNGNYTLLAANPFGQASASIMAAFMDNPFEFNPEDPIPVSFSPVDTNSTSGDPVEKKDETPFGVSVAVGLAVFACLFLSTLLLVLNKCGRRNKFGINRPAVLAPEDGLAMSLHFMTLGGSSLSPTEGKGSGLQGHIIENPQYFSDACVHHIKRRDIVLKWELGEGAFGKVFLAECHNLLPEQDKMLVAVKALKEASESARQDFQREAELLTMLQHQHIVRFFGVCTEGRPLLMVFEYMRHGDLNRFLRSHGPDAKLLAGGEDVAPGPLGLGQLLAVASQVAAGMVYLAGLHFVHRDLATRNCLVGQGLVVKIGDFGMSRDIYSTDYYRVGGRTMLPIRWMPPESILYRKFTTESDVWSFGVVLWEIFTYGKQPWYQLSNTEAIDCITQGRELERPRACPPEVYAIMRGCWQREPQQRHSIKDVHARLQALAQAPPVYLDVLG

Row | SMILES | IC50 [nM]
1 | COCCN1C[C@@H](NC(=O)Nc2cc(-c3cnc(C)cn3)nn2C)[C@H](c2ccc(F)c(F)c2)C1 [Example 152, 1-((3S,4R)-4-(3,4-difluorophenyl)-1-(2-methoxyethyl)pyrrolidin-3-yl)-3-(1-methyl-3-(5-methylpyrazin-2-yl)-1H-pyrazol-5-yl)urea] | < 100
2 | COCCN1C[C@@H](NC(=O)Nc2c(C)c(-c3cnc(C)cn3)nn2C)[C@H](c2ccc(F)c(F)c2)C1 [Example 153, 1-((3S,4R)-4-(3,4-difluorophenyl)-1-(2-methoxyethyl)pyrrolidin-3-yl)-3-(1,4-dimethyl-3-(5-methylpyrazin-2-yl)-1H-pyrazol-5-yl) urea] | 100 to 1000
3 | CCOC(=O)c1cnn(-c2ccccc2)c1NC(=O)N[C@@H]1CN(CCOC)C[C@H]1c1ccc(F)c(F)c1 [Example 154, ethyl 5-(3-((3S,4R)-4-(3,4-difluorophenyl)-1-(2-methoxyethyl)pyrrolidin-3-yl)ureido)-1-phenyl-1H-pyrazole-4-carboxylate] | 1000 to 10000
4 | COCCN1C[C@@H](NC(=O)Nc2cc(-c3cnccn3)nn2C)[C@H](c2ccc(F)c(F)c2)C1 [Example 155, 1-((3S,4R)-4-(3,4-difluorophenyl)-1-(2-methoxyethyl)pyrrolidin-3-yl)-3-(1-methyl-3-(pyrazin-2-yl)-1H-pyrazol-5-yl)urea] | < 100
5 | COCCN1C[C@@H](NC(=O)Nc2c(-c3ccccc3)c(OC)nn2C)[C@H](c2ccc(F)c(F)c2)C1 [Example 156, 1-((3S,4R)-4-(3,4-difluorophenyl)-1-(2-methoxyethyl)pyrrolidin-3-yl)-3-(3-methoxy-1-methyl-4-phenyl-1H-pyrazol-5-yl)urea] | < 100
6 | CCOc1nn(C)c(NC(=O)N[C@@H]2CN(CCOC)C[C@H]2c2ccc(F)c(F)c2)c1-c1ccccc1 [Example 157, 1-((3S,4R)-4-(3,4-difluorophenyl)-1-(2-methoxyethyl)pyrrolidin-3-yl)-3-(3-ethoxy-1-methyl-4-phenyl-1H-pyrazol-5-yl)urea] | < 100
7 | COCCN1C[C@@H](NC(=O)Nc2c3c(nn2-c2ccccc2)CNC3)[C@H](c2ccccc2)C1 [Example 158, 1-((3S,4R)-1-(2-methoxyethyl)-4-phenylpyrrolidin-3-yl)-3-(2-phenyl-2,4,5,6-tetrahydropyrrolo[3,4-c]pyrazol-3-yl)urea dihydrochloride] | 1000 to 10000
8 | COCCN1C[C@@H](NC(=O)Nc2c3c(nn2-c2ccccc2)CN(C(C)=O)C3)[C@H](c2ccccc2)C1 [Example 159, 1-(5-acetyl-2-phenyl-2,4,5,6-tetrahydropyrrolo[3,4-c]pyrazol-3-yl)-3-((3S,4R)-1-(2-methoxyethyl)-4-phenylpyrrolidin-3-yl)urea] | 100 to 1000
9 | COCCN1C[C@@H](NC(=O)Nc2c(CO)c(COC)nn2-c2ccccc2)[C@H](c2ccc(F)c(F)c2)C1 [Example 160, 1-((3S,4R)-4-(3,4-difluorophenyl)-1-(2-methoxyethyl)pyrrolidin-3-yl)-3-(4-(hydroxymethyl)-3-(methoxymethyl)-1-phenyl-1H-pyrazol-5-yl)urea] | 100 to 1000
10 | COCCN1C[C@@H](NC(=O)Nc2cc(-c3ccc(C(=O)O)cc3)nn2C)[C@H](c2ccc(F)c(F)c2)C1 [Example 161, 4-(5-(3-((3S,4R)-4-(3,4-difluorophenyl)-1-(2-methoxyethyl)pyrrolidin-3-yl)ureido)-1-methyl-1H-pyrazol-3-yl)benzoic acid] | < 100
11 | COCCN1C[C@@H](NC(=O)Nc2cc(-c3ccc(C(N)=O)cc3)nn2C)[C@H](c2ccc(F)c(F)c2)C1 [Example 162, 4-(5-(3-((3S,4R)-4-(3,4-difluorophenyl)-1-(2-methoxyethyl)pyrrolidin-3-yl)ureido)-1-methyl-1H-pyrazol-3-yl)benzamide] | < 100
12 | CNC(=O)c1ccc(-c2cc(NC(=O)N[C@@H]3CN(CCOC)C[C@H]3c3ccc(F)c(F)c3)n(C)n2)cc1 [Example 163, 4-(5-(3-((3S,4R)-4-(3,4-difluorophenyl)-1-(2-methoxyethyl)pyrrolidin-3-yl)ureido)-1-methyl-1H-pyrazol-3-yl)-N-methylbenzamide] | < 100
